Source: US6632906B1, “Adhesives” (Strakan Limited, priority 1999, dated 2003)

Key:
Format in all cases: physicochemical
[1] = Bakelite 180° peel strength test
Method: Peel strength was measured by coating each sample onto a PET strip 25 mm wide and 100 mm long and applying the strip to a bakelite plate. Then, a roller having a load of 300 g is rolled back and forth thereon to secure the sample to the plate. The sample is subsequently peeled off at an angle of 180° at a rate of 300 mm/min. to determine peel force. Unless otherwise specified, peel force is measured herein by this test.
In this Example, PET strips were 20 mm in width. In the adhesive of Example 1, adipic acid diamine was dissolved in methanol+water (19:1 by volume) to a concentration of 0.5%.
The Nitto Adhesive was dissolved in ethyl acetate. The cross-linking agent (aluminium tri-acetylacetonate) was dissolved in acetylacetone+ethylacetate (1:1 by volume) solution to a concentration of 0.5%.
IPM was used as plasticiser for both. Heating was at 80° C. for 20 minutes in both cases.

[2] = Saturation concentration of drugs in adhesives (crystallisation); design: key: No crystallisation. Drug is dissolved; ¦: Crystallisation; conditions: IPM 1.0 g
Description: Oestradiol (a hydrophobic drug) and piroxicam (a hydrophilic drug), were investigated to establish their saturation concentrations in the two adhesives. As before, formulations 3 in each of Tables 9 and 10 were used.

[3] = Stability of drug-containing patches, adhesive of the invention; conditions: 6 days at 60° C.
Method: The mixed solutions were coated onto PET film and heated at 80° C. for 20 minutes. The content of drug was determined both immediately after preparation and after storage at 6 days at 60° C.

[4] = Stability of drugs in Nitto adhesive
Method: The mixed solutions were coated onto PET film and heated at 80° C. for 20 minutes. The content of drug was determined immediately after preparation and after storage for 6 days at 60° C.

[5] = Adhesive B from Example 11, diethylene triamine 20 mg as cross-linker
[6] = allyl acetoacetate polymer of Example 9, 0.8 g of plasticiser, adipic acid diamine cross-linked
[7] = Nitto Adhesive 1.0 g, cross-linker 10 mg, drug 40
[8] = Nitto Adhesive 1.0 g, cross-linker 10 mg, drug 50
[9] = Nitto Adhesive 1.0 g, cross-linker 10 mg, drug 75

SMILES | Adhesion strength [1, 5] [g/25 mm] | Adhesion strength [1, 6] [g/20 mm] | Crystallisation [2, 7] | Crystallisation [2, 8] | Crystallisation [2, 9] | deterioration of drug content after storage [3] | further results
CCCCCCCCCCCCCC(=O)OC(C)C [IPM, isopropyl myristate] | 30 | 80 | – | – | – | – | –
CCCCCCCC/C=C\CCCCCCCC(=O)OC [MO, methyl oleate] | 35 | 95 | – | – | – | – | –
CN1C(C(=O)Nc2ccccn2)=C(O)c2ccccc2S1(=O)=O [Piroxicam] | – | – | ¦ | ¦ | ¦ | no measurable deterioration | Crystallisation ([2]; Adhesive of invention 1.0 g, cross-linker 3.0 mg, drug 50): ¦; Crystallisation ([2]; Adhesive of invention 1.0 g, cross-linker 3.0 mg, drug 75): ¦; stability of drug ([4]; during the preparation process and after heating 60° C. for 6 days): stable

Continued, in another order:

Adhesion strength [1, 5] [g/25 mm] | Adhesion strength [1, 6] [g/20 mm] | Crystallisation [2, 7] | Crystallisation [2, 8] | Crystallisation [2, 9] | deterioration of drug content after storage [3] | SMILES | further results
– | – | ¦ | ¦ | ¦ | – | C[C@]12CC[C@@H]3c4ccc(O)cc4CC[C@H]3[C@@H]1CC[C@@H]2O [oestradiol] | Crystallisation ([2]; Adhesive of invention 1.0 g, cross-linker 3.0 mg, drug 120 mg): ¦; Crystallisation ([2]; Adhesive of invention 1.0 g, cross-linker 3.0 mg, drug 150 mg): ¦
– | – | – | – | – | no measurable deterioration | C=C1CC[C@H](O)C/C1=C/C=C1\CCC[C@]2(C)[C@@H]([C@H](C)/C=C/[C@H](C)C(C)C)CC[C@@H]12 [vitamin D2] | decomposed further during the 6 day storage period ([4]; 6 days at 60° C.): 20%; decomposed during the preparation process ([4]; coated onto PET film, 80° C. for 20 minutes): ca. 30%
